In US20260092061A1, “COMPOUNDS FOR TARGETED PROTEIN DEGRADATION” (Amphista Therapeutics Limited, priority 2022, published 2026) one finds Dmax and DC50 data, which are given here for 12 compounds.

Where two headings read alike, the source gives them in different places.

One test has as its target T1, BRD7 (Homo sapiens, UniProt Q9NPI1).
T1 construct: HiBiT-BRD7 KI HEK293 (LgBiT) Cells (Promega CS3023410); host or cells: HEK293 (LgBiT), HiBiT knock-in at the BRD7 locus
T1 sequence (Q9NPI1 1-651): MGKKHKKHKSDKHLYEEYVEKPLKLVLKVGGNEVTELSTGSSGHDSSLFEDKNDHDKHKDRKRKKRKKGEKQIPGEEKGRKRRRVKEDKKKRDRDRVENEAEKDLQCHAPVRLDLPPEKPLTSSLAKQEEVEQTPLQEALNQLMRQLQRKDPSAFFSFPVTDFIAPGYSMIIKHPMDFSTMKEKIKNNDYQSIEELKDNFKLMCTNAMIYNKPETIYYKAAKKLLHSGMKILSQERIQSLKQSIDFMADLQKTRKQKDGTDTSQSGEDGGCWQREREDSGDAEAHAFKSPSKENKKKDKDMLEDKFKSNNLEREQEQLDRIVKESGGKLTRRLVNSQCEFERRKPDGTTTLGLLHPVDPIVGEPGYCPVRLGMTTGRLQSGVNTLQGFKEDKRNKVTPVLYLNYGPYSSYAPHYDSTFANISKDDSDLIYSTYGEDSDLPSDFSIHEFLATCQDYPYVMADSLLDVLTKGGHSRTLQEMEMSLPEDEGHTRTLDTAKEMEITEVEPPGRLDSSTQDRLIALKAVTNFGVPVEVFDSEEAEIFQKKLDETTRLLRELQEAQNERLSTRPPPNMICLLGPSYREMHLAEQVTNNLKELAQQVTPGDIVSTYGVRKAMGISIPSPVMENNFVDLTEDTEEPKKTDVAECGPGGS
As to the kind of experiment: BRD7 degradation, HiBiT-BRD7 KI HEK293 (LgBiT) cells, NanoGlo Lytic Endpoint assay (Assay Protocol 1). To be noted: for Dmax / Dmax at 1 µM: HEK293; for Dmax / DC50: Table 5, assay protocol 1; for Dmax at 1 µM: Table 3, assay 1, 1 μM compound at 5 h of treatment. The test is classed as cell-based. As for the experimental part: HiBiT-BRD9 KI HEK293 (LgBiT) Cells (Promega CS3023412) were seeded at 8000 cells per well (38 μL) in sterile white bottom 384 well plates (Invitrogen 164610 or Greiner 781080) and incubated overnight at 37° C. with 5% CO2. The next day, compounds were prepared at 1000× final concentration in DMSO and diluted 1:100 in media (DMEM PAN Biotech P04-03550+10% FBS ATCC 302025). […] The lytic buffer was equilibrated to room temperature for 10-15 min before lytic reagent was prepared by adding substrate (1:50) and LgBit protein (1:100) in lytic buffer. 40 μL lytic reagent mix was added to each well of the cel plate and plates were centrifuged briefly at ˜50g. Plates were incubated with shaking (350 RPM) for 12-24 min before reading using the LUM plus module of a BMG Pherastar FSX. Data was analysed using Dotmatics software and % BRD9 remaining was calculated by normalisation to average data from high and low control wells (DMSO treated cels and no cells respectively).
BRD7 degradation was determined in line with the procedure as outlined above for BRD9, with the exception that HiBiT-BRD7 KI HEK293 (LgBiT) Cells (Promega CS3023410) were seeded at 8000 cells per well (CPW) (36 uL) in sterile white bottom 384 well plates (Invitrogen 164610 or Greiner 781080) and incubated overnight at 37° C. with 5% CO2.

The next test concerns the target T2, BRD9 (Homo sapiens, UniProt Q9H8M2).
T2 sequence (Q9H8M2 1-597): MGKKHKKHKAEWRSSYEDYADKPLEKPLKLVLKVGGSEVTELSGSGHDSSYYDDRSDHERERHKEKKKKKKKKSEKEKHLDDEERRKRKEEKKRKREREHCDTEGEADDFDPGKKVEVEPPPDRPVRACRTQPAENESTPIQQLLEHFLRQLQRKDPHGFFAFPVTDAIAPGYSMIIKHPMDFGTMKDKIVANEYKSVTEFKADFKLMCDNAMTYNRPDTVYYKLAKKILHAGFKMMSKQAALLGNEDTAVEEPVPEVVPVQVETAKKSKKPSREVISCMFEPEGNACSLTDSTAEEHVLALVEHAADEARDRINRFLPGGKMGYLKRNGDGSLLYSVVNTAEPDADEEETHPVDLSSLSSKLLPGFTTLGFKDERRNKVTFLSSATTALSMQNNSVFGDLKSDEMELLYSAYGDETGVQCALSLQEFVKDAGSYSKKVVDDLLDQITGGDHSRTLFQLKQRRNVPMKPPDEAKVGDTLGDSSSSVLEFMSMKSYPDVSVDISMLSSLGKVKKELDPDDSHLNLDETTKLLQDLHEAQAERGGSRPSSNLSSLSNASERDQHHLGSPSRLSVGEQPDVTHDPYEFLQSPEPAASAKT
As to the kind of experiment: Degradation of BRD9 (IF), immunofluorescence in MV4-11 cells, 24 hours (Assay Protocol 2). Format: cell-based. Further details: A suspension of MV4-11 cells (ATCC CRL-9591) was prepared; host or cells: MV4-11. The essentials: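 % BRD9 remaining, scaled between DMSO (high) and 100 nM CFT-8634 (low) control wells, derives from mean Alexa 647 contrast in central nuclei by high-content imaging. MV4-11 cells had 24 h compound exposure at 37° C. before PFA fixation, Triton permeabilisation and anti-BRD9 E4Q3F immunostaining.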

Where [1] appears, read: Table 4, BRD9 degradation, determined according to Assay Protocol 2, read-out: DC50^2.
Setting [2] is: MV4-11, 24 h, Table 2, BRD9 degradation (IF), Assay Protocol 2, MV4-11 cells, read-out: Assay 2 DCmax.
Where [3] appears, read: Table 2, BRD9 degradation (IF), Assay Protocol 2, MV4-11 cells, read-out: Assay 2 DC50.
Where [4] appears, read: MV4-11, Table 4, BRD9 degradation, determined according to Assay Protocol 2, read-out: Dmax^2.
The mark [5] stands for this setting: MV4-11, Table 5, cells marked *: measured in accordance with Assay Protocol 2, read-out: BRD9 Dmax (%).
The mark [6] stands for this setting: Table 5, cells marked *: measured in accordance with Assay Protocol 2, read-out: BRD9 DC50.

For orientation: DC50 means the midpoint of the concentration-degradation curve. For `COc1cc(-c2cn(C)c(=O)c(C)c2C)cc(OC)c1CN1CC2CC1CN2C(=O)/C(C#N)=C/c1nccs1` (mixture of isomers) [BRD9i, (E/Z)-2-(5-(2,6-dimethoxy-4-(1,4,5-trimethyl-6-oxo-1,6-dihydropyridin-3-yl)benzyl)-2,5-diazabicyclo[2.2.1]heptane-2-carbonyl)-3-(thiazol-2-yl)acrylonitrile], at BRD7, the Dmax was 25 to 40% and the 50% degradation concentration (DC50) was above 1000 nM. Moreover, the DC50 at BRD9 (setting [1]) is below 25 nM.
At BRD7, `COc1cc(-c2cn(C)c(=O)c3cnccc23)cc(OC)c1CN1CCN(Cc2cccc3c2CCN(C(=O)/C(C#N)=C\c2ncc(C)s2)C3C)CC1` (mixture of isomers) [Compound A10, (E/Z)-2-(5-((4-(2,6-dimethoxy-4-(2-methyl-1-oxo-1,2-dihydro-2,7-naphthyridin-4-yl)benzyl)piperazin-1-yl)methyl)-1-methyl-1,2,3,4-tetrahydroisoquinoline-2-carbonyl)-3-(5-methylthiazol-2-yl)acrylonitrile] gave a Dmax at 1 µM of 25 to 40%. Moreover, the Dmax at BRD9 (setting [2]) fell in the range of 40 to 70%. The DC50 on BRD9 (setting [3]) is below 1.25 nM.
In the same order, the values of `COc1cc(-c2cn(C)c(=O)c(C)c2C)cc(OC)c1CN1CCCN(Cc2cccc3c2CCN(C(=O)/C(C#N)=C/C(C)(C)C)C3C)CC1` (mixture of isomers) [Compound A72, (E/Z)-2-(5-((4-(2,6-dimethoxy-4-(1,4,5-trimethyl-6-oxo-1,6-dihydropyridin-3-yl)benzyl)-1,4-diazepan-1-yl)methyl)-1-methyl-1,2,3,4-tetrahydroisoquinoline-2-carbonyl)-4,4-dimethylpent-2-enenitrile] are below 25%, 40 to 70% and 10 to 25 nM.
On BRD7, `COc1cc(-c2cn(C)c(=O)c(C)c2C)cc(OC)c1CN1CC2CC(C1)N2Cc1cccc2c1CCN(C(=O)/C(C#N)=C/C(C)(C)C)C2C` (mixture of isomers) [Compound A71, (E/Z)-2-(5-((3-(2,6-dimethoxy-4-(1,4,5-trimethyl-6-oxo-1,6-dihydropyridin-3-yl)benzyl)-3,6-diazabicyclo[3.1.1]heptan-6-yl)methyl)-1-methyl-1,2,3,4-tetrahydroisoquinoline-2-carbonyl)-4,4-dimethylpent-2-enenitrile] displayed a Dmax at 1 µM of 40 to 70%. Further, the Dmax at BRD9 (setting [2]) was above 75%. The DC50 on BRD9 (setting [3]) was below 1.25 nM.
The like results for `COc1cc(-c2cn(C)c(=O)c3cnccc23)cc(OC)c1CN(C)Cc1cccc2c1CCN(C(=O)/C(C#N)=C/c1cccc(Br)n1)C2C` (mixture of isomers) [Compound A50] were, in that order, 25 to 40%, above 75% and 1.25 to 10 nM.
With `COc1cc(-c2cn(C)c(=O)c(C)c2C)cc(OC)c1CN1CC2CC1CN2C(=O)/C(C#N)=C/C(C)(C)C` (mixture of isomers) [BRD9b], the Dmax at BRD7 is below 25%; on BRD9 (setting [4]), 50 to 70%. For the same compound, the DC50 at BRD7 was above 1000 nM; at BRD9 (setting [1]), below 25 nM.
On to `COc1cc(-c2cn(C)c(=O)c(C)c2C)cc(OC)c1CN1CCN(C(=O)/C(C#N)=C/c2cccc(Br)n2)CC1` [BRD9h, (E/Z)-3-(6-bromopyridin-2-yl)-2-(4-(2,6-dimethoxy-4-(1,4,5-trimethyl-6-oxo-1,6-dihydropyridin-3-yl)benzyl)piperazine-1-carbonyl)acrylonitrile], for which the Dmax at BRD7 is 25 to 40%; at BRD9 (setting [4]) it was above 70%. Also, the half-maximal degradation concentration (DC50) on BRD7 is above 1000 nM; at BRD9 (setting [1]) it was below 25 nM.
At BRD7, `COc1cc(-c2cn(C)c(=O)c(C)c2C)cc(OC)c1CN1CCC(Oc2cccc3c2CCN(C(=O)/C(C#N)=C/c2cccc(Br)n2)C3C)CC1` (mixture of isomers) [Compound A68, (E/Z)-3-(6-bromopyridin-2-yl)-2-(5-((1-(2,6-dimethoxy-4-(1,4,5-trimethyl-6-oxo-1,6-dihydropyridin-3-yl)benzyl)piperidin-4-yl)oxy)-1-methyl-1,2,3,4-tetrahydroisoquinoline-2-carbonyl)acrylonitrile] gave a Dmax at 1 µM below 25%. For the same compound, the Dmax at BRD9 (setting [2]) was in the range of 40 to 70%. For the same compound, the DC50 at BRD9 (setting [3]) is below 1.25 nM.
Consider `COc1cc(-c2cn(C)c(=O)c(C)c2C)cc(OC)c1CN(C)C(=O)/C(C#N)=C/C(C)(C)C` [BRD9ac, (E/Z)-2-cyano-N-(2,6-dimethoxy-4-(1,4,5-trimethyl-6-oxo-1,6-dihydropyridin-3-yl)benzyl)-N,4,4-trimethylpent-2-enamide], for which the Dmax at BRD7 was in the range of 70 to 75%; at BRD9 (setting [4]), 50 to 70%; at BRD9 (setting [5]) it was 40 to 70%. The 50% degradation concentration (DC50) at BRD7 and at BRD9 (setting [6]) was 25 to 1000 nM each time.
Regarding `COc1cc(-c2cn(C)c(=O)c(C)c2C)cc(OC)c1CN1CCN(C(=O)/C(C#N)=C/C(C)(C)C)CC1` [BRD9a, (E/Z)-2-(4-(2,6-dimethoxy-4-(1,4,5-trimethyl-6-oxo-1,6-dihydropyridin-3-yl)benzyl)piperazine-1-carbonyl)-4,4-dimethylpent-2-enenitrile], the Dmax on BRD7 was below 25%; on BRD9 (setting [4]), 50 to 70%. Besides, the half-maximal degradation concentration (DC50) at BRD7 was above 1000 nM.
At BRD7, `COc1cc(-c2cn(C)c(=O)c(C)c2C)cc(OC)c1CN1CCN(Cc2cccc3c2CCN(C(=O)/C(C#N)=C/c2cccc(Br)n2)C3C)CC1` (mixture of isomers) [Compound A16, (E/Z)-3-(6-bromopyridin-2-yl)-2-(5-((4-(2,6-dimethoxy-4-(1,4,5-trimethyl-6-oxo-1,6-dihydropyridin-3-yl)benzyl)piperazin-1-yl)methyl)-1-methyl-1,2,3,4-tetrahydroisoquinoline-2-carbonyl) acrylonitrile] registered a Dmax at 1 µM of 25 to 40%. In addition, the Dmax on BRD9 (setting [2]) lay in the range of 40 to 70%. For the same compound, the DC50 on BRD9 (setting [3]) is below 1.25 nM.
Consider `COc1cc(-c2cn(C)c(=O)c(C)c2C)cc(OC)c1CN1CCCN(C(=O)/C(C#N)=C/C(C)(C)C)CC1` [BRD9c, (E/Z)-2-(4-(2,6-dimethoxy-4-(1,4,5-trimethyl-6-oxo-1,6-dihydropyridin-3-yl)benzyl)-1,4-diazepane-1-carbonyl)-4,4-dimethylpent-2-enenitrile], for which the Dmax on BRD7 was below 25%; on BRD9 (setting [4]), above 70%; on BRD9 (setting [5]) it was above 75%. The half-maximal degradation concentration (DC50) at BRD7 was above 1000 nM; at BRD9 (setting [1]), below 25 nM; on BRD9 (setting [6]) it was below 1.25 nM.
